Literature values, collected in patent publication US6825040B2, “Method of using a vapor acid test kit” (Mainstream Engineering Corporation, priority 1995, dated 2004).

Conditions: negative log of the dissociation equilibrium constant of the indicator

| SMILES | pKa |
| --- | --- |
| Cc1c(C2(c3cc(Br)c(O)c(Br)c3C)OS(=O)(=O)c3ccccc32)cc(Br)c(O)c1Br [Bromocresol green, Tetrabromo-m-cresolsulfonephthalein] | 4.58 |
| CN(C)c1ccc(N=Nc2ccc(S(=O)(=O)[O-])cc2)cc1.[Na+] [Methyl orange, Dimethylaminoazobenzene sodium sulfonate] | 3.40 |
| O=S1(=O)OC(c2ccc(O)c(Cl)c2)(c2ccc(O)c(Cl)c2)c2ccccc21 [Chlorophenol red, Dichlorophenolsulfonephthalein] | 6.0 |

More lines, now with the values ahead:

| pKa | SMILES |
| --- | --- |
| 9.4 | O=C1OC(c2ccc(O)cc2)(c2ccc(O)cc2)c2ccccc21 [Phenolphthalein] |
| 4.95 | CN(C)c1ccc(/N=N/c2ccccc2C(=O)O)cc1 [Methyl red, o-Carboxybenzeneazodimethylaniline] |
| 10.0 | Cc1cc(O)c(C(C)C)cc1C1(c2cc(C(C)C)c(O)cc2C)OC(=O)c2ccccc21 [Thymolphthalein] |

Conditions: pH range of the indicator colour change

| SMILES | pH Range |
| --- | --- |
| Cc1cc(C2(c3cc(C)c(O)c(Br)c3)OS(=O)(=O)c3ccccc32)cc(Br)c1O [Bromocresol purple, Dibromo-o-cresolsulfonephthalein] | 5.2 to 6.8 |
| Cc1c(C2(c3cc(Br)c(O)c(Br)c3C)OS(=O)(=O)c3ccccc32)cc(Br)c(O)c1Br [Bromocresol green, Tetrabromo-m-cresolsulfonephthalein] | 4.0 to 6.8 |
| CN(C)c1ccc(N=Nc2ccc(S(=O)(=O)[O-])cc2)cc1.[Na+] [Methyl orange, Dimethylaminoazobenzene sodium sulfonate] | 3.1 to 4.4 |
| Cc1c(C2(c3cc(C(C)C)c(O)c(Br)c3C)OS(=O)(=O)c3ccccc32)cc(C(C)C)c(O)c1Br [Bromothymol blue, Dibromothymolsulfonephthalein] | 6.2 to 7.6 |
| O=S(=O)([O-])c1ccc(N=Nc2ccc(Nc3ccccc3)cc2)cc1.[Na+] [Tropeolin 00, Diphenylamino-p-benzene sodium sulfonate] | 1.3 to 3.2 |
| O=S1(=O)OC(c2ccc(O)c(Br)c2)(c2ccc(O)c(Br)c2)c2ccccc21 [Bromophenol red, Dibromophenolsulfonephthalein] | 5.2 to 6.8 |
| O=S1(=O)OC(c2ccc(O)c(Cl)c2)(c2ccc(O)c(Cl)c2)c2ccccc21 [Chlorophenol red, Dichlorophenolsulfonephthalein] | 5.4 to 6.8 |

Results, then the compound that gave them:

| pH Range | SMILES |
| --- | --- |
| 8.0 to 10.0 | O=C1OC(c2ccc(O)cc2)(c2ccc(O)cc2)c2ccccc21 [Phenolphthalein] |
| 1.2 to 2.8 | Cc1cc(O)c(C(C)C)cc1C1(c2cc(C(C)C)c(O)cc2C)OS(=O)(=O)c2ccccc21 [Thymol blue (acid range), Thymolsulfonephthalein] |
| 4.4 to 6.2 | CN(C)c1ccc(/N=N/c2ccccc2C(=O)O)cc1 [Methyl red, o-Carboxybenzeneazodimethylaniline] |
| 11.0 to 13.0 | O=S(=O)([O-])c1ccc(N=Nc2ccc(O)cc2O)cc1.[Na+] [Tropeolin 0, p-Sulfobenzeneazoresorcinol] |
| 9.4 to 10.6 | Cc1cc(O)c(C(C)C)cc1C1(c2cc(C(C)C)c(O)cc2C)OC(=O)c2ccccc21 [Thymolphthalein] |

Same assay, conditions: pH range of the indicator colour change; listed as Thymol blue

| SMILES | pH Range |
| --- | --- |
| Cc1cc(O)c(C(C)C)cc1C1(c2cc(C(C)C)c(O)cc2C)OS(=O)(=O)c2ccccc21 [Thymol blue (acid range), Thymolsulfonephthalein] | 8.0 to 9.6 |
